Tests used:
SARS-CoV-2 3CLpro = SARS-CoV-2 3CLpro (Severe acute respiratory syndrome coronavirus 2, UniProt P0DTD1); assay type: cell-based
293T cells = details: initial screening
[1] = tested on: SARS-CoV-2 3CLpro-HA, RLuc, FLuc in HEK293T cells; assay type: cell-based; details: actin as control
3CLpro = 3CLpro (Severe acute respiratory syndrome coronavirus 2, UniProt P0DTD1); assay: 3CLpro biochemical inhibition assay; design: species or system SARS-CoV-2

Q: `COc1ccc(/C=C/C(=O)Nc2ccccc2C(=O)O)cc1OC` [Tranilast, (E)-2-(3-(3,4-dimethoxyphenyl)acrylamido)benzoic acid] was tested. Which “inhibition against viral proteases, in words” value (SARS-CoV-2 3CLpro) did it give?
A: SARS 3CLpro specific inhibition

Q: And the “cytotoxicity, in words” value (293T cells)?
A: nontoxic

Q: Which results are given for `CC(C)C[C@H](NC(=O)[C@H](CCc1ccccc1)NC(=O)CN1CCOCC1)C(=O)N[C@@H](Cc1ccccc1)C(=O)N[C@@H](CC(C)C)C(=O)[C@@]1(C)CO1` [Carfilzomib]?
A: inhibition against viral proteases, in words (SARS-CoV-2 3CLpro): inhibited all the proteases tested; protein expression by western blot [1]: decrease in all exogenously expressed constructs

Q: Which results are given for `O=C(/C=C/c1ccc(Cl)c(Cl)c1)Nc1ccccc1C(=O)O` [SR-32229]?
A: potency in the enzymatic assay, in words (3CLpro): low-µM affinity; Emax (3CLpro; Supplementary Fig. 2, panel D): ~100 % of tranilast

Q: `CCN1CCN(Cc2ccc(NC(=O)Nc3ccc(Oc4cc(NC)ncn4)cc3)cc2C(F)(F)F)CC1` [AST-487] was tested. Which “inhibition against viral proteases, in words” value (SARS-CoV-2 3CLpro) did it give?
A: some selective SARS 3CLpro inhibition but only at the highest concentration tested

From paper PMC9839384 (Slas Discovery, 2023)
